Consider 2 compounds from patent publication US20240166649A1, “DIHYDROPYRIMIDINE COMPOUND, PREPARATION METHOD THEREFOR AND APPLICATION THEREOF” (Shanghai Visonpharma Co., Ltd., priority 2021, published 2024).

Where two headings read alike, the source gives them in different places.

Series [1] relates to HBV (hepatitis B virus) in HepG2.2.15 cells. Kind of series: Cell-based anti-viral activity assay (HBV DNA in supernatant by quantitative PCR). To be noted: 120 h, anti-HBV activity, HepG2.2.15 cells, 5 days, read-out: EC50 (HepG2.2.15). In a few lines:
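HepG2.2.15 cells (stably carrying HBV genome) treated with 3.16-fold compound dilutions, final 1% DMSO, for 5 days at 37 °C. Supernatant HBV DNA quantified by qPCR against a standard curve; % inhibition normalised to DMSO and high-concentration reference compound wells.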

Series [2] is described as follows: Pharmacokinetics (PK) evaluation in mice. To be noted: ICR mice, po 10 mg/kg; for Kp at 0.5 h / Kp at 1 h / Kp at 3 h / Kp at 5 h / concentration at 0.5 h / concentration at 1 h / concentration at 3 h / concentration at 5 h / AUC(0-t) / Cmax: mouse; for Kp at 0.5 h / Kp at 1 h / Kp at 3 h / Kp at 5 h: liver/plasma, read-out: Liver/Plasma ratio. The format is in vivo. As for the experimental part:
Pharmacokinetics (PK) Evaluation in Mice Test compounds were administered to ICR mice by gavage (po). The po dose was 10 mg/kg, and the vehicle formulation was 10% DMSO+40% PEG400+50% Saline (0.9% saline). Animals were fasted overnight (10-14 h) before administration and fed 4 h after administration. Blood was collected into heparin sodium anticoagulated tubes at multiple time points (0.5, 1, 3, 5 hours) after administration. Mice were euthanized with CO2 and livers were collected at multiple time points (0.5, 1, 3,5 h). The drug concentrations in plasma and liver were analyzed by LC-MS/MS method. Phenix WinNonlin was used to calculate the pharmacokinetic parameters.

Series [3] can be described thus: Cytotoxicity assay (CellTiter Glo). To be noted: human; HepG2.2.15 cells, five days post treatment. The format is cell-based. As to the method: The Invention Determined Cytotoxicity of the Compounds Against HepG2.2.15 Cells (Table 2)
HepG2.2.15 cells were seeded into 96-well plates (8000 cells per well) and cell viability was measured by the addition of 60 μL of CellTiter Glo reagent (Promega) five days post treatment with the compounds. Cell plates with CellTiter Glo added were shaken on a plate shaker for 20 min and then the chemiluminescence signal was stabilized at room temperature for 10 min. Chemiluminescence values were read using a microplate reader (Bio-TeK SYNERGY NEO2).
The concentration corresponding to 50% cytotoxicity (CC50) was fitted by graphpad prism software. The cytotoxicity was calculated by the formula: % Cytotoxicity=100−(chemiluminescence value of sample Well −average chemiluminescence value of blank medium column)/(average chemiluminescence value of DMSO column −average chemiluminescence value of blank medium column)*100

Where [4] appears, read: liver, read-out: Liver drug conc.
[5] abbreviates: plasma, read-out: Plasm drug conc.

Turning to `CCOC(=O)C1=C(CN2CCN3C(=O)N(C45CCC(CC(=O)O)(C4)C5)C[C@@H]3C2)NC(c2nccs2)=N[C@H]1c1cccc(F)c1C` [Compound 58, 2-(4-((S)-7-(((S)-5-(Ethoxycarbonyl)-6-(3-Fluoro-2-Methylphenyl)-2-(Thiazol-2-Yl)-3,6-Dihydropyrimidin-4-Yl)Methyl)-3-Oxohexahydroimidazo[1,5-a]Pyrazin-2(3H)-Yl)Bicyclo[2.1.1]Hexan-1-Yl)Acetic Acid], the EC50 in series [1] is 6 nM. Also, in series [2], the “Liver AUC(0→t)” value is 175730 ng·h/g, the “Liver Cmax” value was determined as 62519 ng/g, the Kp at 0.5 h turned out to be 31 and the Kp at 1 h worked out at 40. For the same compound, in series [2], the Kp at 3 h came out at 57 and the Kp at 5 h is 44. In addition, in series [2] (setting [4]), the concentration at 0.5 h turned out to be 62500 ng/g, the concentration at 1 h was determined as 61300 ng/g, the concentration at 3 h is 26800 ng/g and the concentration at 5 h was determined as 14200 ng/g. In series [2] (plasma), this compound yielded an AUC(0-t) of 4210 ng·h/mL and a Cmax of 2030 ng/mL. For the same compound, in series [2] (setting [5]), the concentration at 0.5 h was 2030 ng/mL, the concentration at 1 h was determined as 1540 ng/mL, the concentration at 3 h stood at 470 ng/mL and the concentration at 5 h came to 324 ng/mL. Also, the cytotoxic concentration (CC50) at 5 days in series [3] is over 50000 nM.
For `CCOC(=O)C1=C(CN2CCN3C(=O)N(C45CC(CC(=O)O)(C4)C5)C[C@@H]3C2)NC(c2nccs2)=N[C@H]1c1cccc(F)c1C` [Compound 22, 2-(3-((S)-7-(((S)-5-(Ethoxycarbonyl)-6-(3-Fluoro-2-Methylphenyl)-2-(Thiazol-2-Yl)-3,6-Dihydropyrimidin-4-Yl)Methyl)-3-Oxohexahydroimidazo[1,5-a]Pyrazin-2(3H)-Yl)Bicyclo[1.1.1]Pentan-1-Yl)Acetic Acid], the EC50 in series [1] amounted to 7 nM. For the same compound, in series [2], the “Liver AUC(0→t)” value was 231116 ng·h/g, the “Liver Cmax” value is recorded as 102141 ng/g, the Kp at 0.5 h was found to be 120 and the Kp at 1 h is 115. In addition, in series [2], the Kp at 3 h worked out at 137 and the Kp at 5 h was found to be 297. Also, in series [2] (setting [4]), the concentration at 0.5 h stood at 102000 ng/g, the concentration at 1 h turned out to be 94800 ng/g, the concentration at 3 h worked out at 24700 ng/g and the concentration at 5 h was 12200 ng/g. Besides, in series [2] (plasma), the AUC(0-t) was found to be 1860 ng·h/mL and the Cmax worked out at 849 ng/mL. Also, in series [2] (setting [5]), the concentration at 0.5 h was 849 ng/mL, the concentration at 1 h came out at 826 ng/mL, the concentration at 3 h was 180 ng/mL and the concentration at 5 h came to 41 ng/mL. For the same compound, the CC50 at 5 days in series [3] was over 50000 nM.

In general, EC50 refers to the midpoint of the concentration-response curve. For orientation: AUC(0-t) means the area under the concentration-time curve up to a stated or last time point. A higher AUC(0-t) goes with high exposure. A word on the Cmax: it is the maximum level reached in the sampled fluid or tissue. As a reminder, the CC50 is the concentration giving 50% cytotoxicity.
